In assay [1] the test system is Sprague-Dawley rats. Nature of the assay: Distal colon markers in TNBS-induced rat colitis: MPO, IL-17A, IL-22 by ELISA, pStat3 by IHC (Example E4). The assay is classed as in vivo. As to the method:
In the first model, acute colitis was induced in Sprague-Dawley rats by a single intra-rectal instillation of TNBS followed by efficacy analysis at day seven. The animals were grouped into sham+vehicle (PO TID), TNBS+vehicle (PO TID), anti-IL23p19 antibody (4 mg/kg/day IP, Day −1 and Day 3), and Peptide 993 treatment at 9, 28, or 61 mg/kg/day (PO TID+in drinking water). Sham indicates animals not treated with TNBS.
In addition, myeloperoxidase (MPO), IL-17A, and IL-22 detected from sampled tissue were quantified by enzyme-linked immunosorbent assay (ELISA), and the results are shown in FIGS. 10A-10C. The percentage of phosphorylated Signal Transducer and Activator of Transcription 3 (Stat3) was normalized to the area of the distal colon quantified by immuno-histochemistry (IHC) (FIG. 10D), and the micrographs shown in FIG. 10E are representative images from each indicated group for IHC analysis of pStat3 expression. Values shown as mean±SD. Statistical significance was assessed by One-way ANOVA with post-hoc Dunnett's vs. Vehicle control: *p≤0.05; **p≤0.01; ***p≤0.001; ****p≤0.0001; ns, not significant.
For the pSTAT3 assays, colon tissue samples were processed routinely, sectioned at approximately 3-5 microns, fixed in 10% neutral buffered formaldehyde, processed in paraffin, and immunolabeled with an anti-pSTAT3 primary antibody that binds STAT3 phosphorylated at Tyrosine 705 (Abcam, Cat. No. ab76315 PUR). pSTAT3 immunolabel as a percentage of total areas was measured using Visiopharm© image analysis software. Image analysis involved outlining the colon tissue as a region of interest (ROI), then an automated thresholding method was utilized for the classification of the pSTAT3 positive immunolabel. After classification, the total tissue area within the ROI was calculated, along with the count of pSTAT3 positive cells and the area (in microns) of the pSTAT3 positive cells. Lastly, the pSTAT3 immunolabel percentage of the total tissue area was calculated.
The details of the pSTAT3 Image Analysis Protocol were as follows:
1. ROI • a. Tissue was outlined, and non-colon tissues were excluded.
2. Pre-processing • a. Image was converted into grayscale-pixel values processed to be 0-255 • b. Grayscale image was filtered into two channels: • i. The DAB (or pSTAT3 positive) channel with pixels associated with the brown DAB staining; and • ii. The hematoxylin channel with pixels associated with the tissue area not stained with DAB (includes all tissue area and background staining).
3. Analysis & Classification • a. Algorithm using a “threshold” method was used to classify the tissue area within the ROI. • i. Threshold of the DAB channel was set to classify the positive pSTAT3 stained cells as any/all pixels (from the DAB channel of the pre-processed image) with values between 0-135. A green label was applied to these positively classified cells. • 1. Pixels with values outside the threshold of 0-135 were considered to be part of the tissue area (within the ROI). • b. […]
4. […] The total tissue area (within the ROI) was calculated-unit was in microns. • b. The total pSTAT3 positive area was calculated-unit is in microns. • c. The “count” of pSTAT3 positive cells was calculated. • d. The fraction of pSTAT3 positive cells was calculated by dividing the pSTAT3 positive area by the total tissue area-unit was in microns. • e. The nuclear density per square millimeter was calculated, simply to change the units from microns to square millimeter.

Assay [2] relates to Sprague-Dawley rats. Nature of the assay: IL-23-directed cytokines in distal colon of 5% DSS-induced acute colitis rats, qRT-PCR and ELISA (Example E4). The assay is classed as in vivo, rat. How it is done:
In the second model, acute colitis was induced in Sprague-Dawley rats by ad libitum access to 5% DSS dissolved in drinking water every day until analysis at day five. The animals were grouped into sham+vehicle (PO TID), DSS+vehicle (PO TID), and DSS+Peptide 993 treatment at 61 mg/kg/day (PO TID+in drinking water).
Expression of genes encoding IL-17A, IL-17F, and IL-22 was quantified by quantitative reverse transcription polymerase chain reaction (qRT-PCR), and production of IL-22 protein was quantified by ELISA. Relative expression was normalized to that of HPRT1; and values were determined as geometric mean±95% confidence interval. Protein concentration is shown as mean±SD. Statistical significance was assessed by One-way ANOVA with post-hoc Dunnett's vs. Vehicle control: *p≤0.05; **p≤0.01; ***p≤0.001; ns, not significant.
Background: In qPCR the cycle at which signal appears reflects the starting amount.

In assay [3] the test system is Sprague-Dawley rats. Nature of the assay: Biomarker gene expression in distal colon, TNBS rat colitis model, quantitative real time PCR (Example E3). The assay is classed as in vivo. The settings on record: 31 mg/kg/day, normalized to HPRT1, vs vehicle group. As to the method: Animals from the sham group (without TNBS exposure), the vehicle group (exposed to TNBS and treated with vehicle only) and the group treated with Peptide 993 (exposed to TNBS and treated with Peptide 993 at 31 mg/kg/day) were subjected for gene expression and miroRNA analysis
For extraction of total RNA from the distal colons, tissue samples stored at −20° C. in the buffer RNAlater, were thawed and homogenized in RLTplus Buffer (Qiagen) at 20× volume:wt, then subsequently purified using the RNeasy Plus Mini Kit (Qiagen). The concentration of the total RNA was measured and the quality of the RNAs was verified on a gel. The total RNA was used in QuantiTect Reverse Transcription Kit (Qiagen) to obtain cDNA templates for the quantative real time PCR. The expression of the genes LCN2 (Lipocalin 2), S100A8 (a subunit of calprotectin) and CLDN8 (Claudin 8 of the claudin family of tight junction proteins) were measured using Taqman and TaqMan Fast Advanced Master Mix (Applied Biosystems). The threshold cycle number (Ct) values, that are indicative of abundance of template, were normalized using the endogenous control gene HPRT1. The Relative expression of each gene was calculated using the normalized Ct values. Statistical analysis of relative expression was performed using One-way ANOVA method (with Dunnett's multiple comparisons) to compare the variations Vs Group 2.

In assay [4] the test system is Sprague-Dawley rats. As to the kind of experiment: CLDN8 gene expression and colonic score in TNBS-induced rat colitis (Example E5). The assay is classed as in vivo. As to the method: The claudin family of proteins are components of the tight junction complex. Through expression analysis and colonic scoring, claudins were analyzed as biomarkers for IBD disease severity. […] CLDN8 gene expression was analyzed in a TNBS-induced rat model of […] following the protocols described in Example E1.

Setting [5] is: TNBS rats, oral treatment, ELISA.
The mark [6] stands for this setting: DSS rats, 61 mg/kg/day oral, distal colon, normalized to HPRT1.

As to `CC(=O)NC(CCCNC(=N)N)C(=O)NC1CCSCC(C(=O)NC(Cc2ccc(OCCN)cc2)C(=O)NC(Cc2ccc3ccccc3c2)C(=O)NC2(C(=O)NC(CCC(=O)O)C(=O)NC(CC(N)=O)C(=O)NC(CC(N)=O)C(N)=O)CCOCC2)NC(=O)C(CCC(N)=O)NC(=O)C(Cc2c[nH]c3ccccc23)NC(=O)C(C(C)O)NC(=O)C(CCC(N)=O)NC1=O` (stereo not drawn) [Peptide 993, Ac-[(D)-Arg]-cyclo[[Abu]-QTWQC]-[Phe[4-(2-aminoethoxy)]]-[2-Nal]-[4-amino-4-carboxy-tetrahydropyran]-ENN-NH2], the “disease-related and IL-23-directed markers in the distal colons (MPO, IL-17A, IL-22, pStat3)” value in the assay on Sprague-Dawley rats [1] (TNBS rats, 9, 28 or 61 mg/kg/day oral, vs vehicle) is “significant and dose-dependent reduction”. For the same molecule, in the assay with Sprague-Dawley rats [1] (setting [5]), the “colonic levels of MPO” value is recorded as “decreased”; the “levels of IL-17A, distal colon” value was “significantly reduced”; the “levels of IL-22, distal colon” value was “significantly reduced”. Also, the “levels of pStat3, distal colon” value in the assay on Sprague-Dawley rats [1] (TNBS rats, oral treatment, IHC, percentage of area) is recorded as “restored to control levels”. Further, the “abundance of IL-22 protein” value in the assay with Sprague-Dawley rats [2] (DSS rats, 61 mg/kg/day oral, distal colon, ELISA) was “significant decreases”. For the same molecule, in the assay with Sprague-Dawley rats [2] (setting [6]), the “relative expression of gene encoding IL-17A” value is listed as “significant decreases”, the “relative expression of gene encoding IL-17F” value is “significant decreases” and the “relative expression of gene encoding IL-22” value was “significant decreases”. Besides, the “mRNA and/or protein levels of IL-23-directed cytokines in the distal colons” value in the assay on Sprague-Dawley rats [2] (DSS-treated rats, 61 mg/kg/day PO TID + in drinking water, day five, vs vehicle) is “significant reduction”. In addition, in the assay with Sprague-Dawley rats [3], the “S100A8 expression, distal colon” value is reported as “not statistically significant, however there was a marked reduction in the average expression of the group”; the “relative expression of CLDN8, distal colon” value is listed as “increase”; the “relative expression of LCN2, distal colon” value was “significant reduction”. For the same molecule, the “levels of CLDN8 expression, distal colon” value with Sprague-Dawley rats [4] (vs vehicle control-treated) is “restored levels of CLDN8 expression above vehicle control-treated subjects”. For the same molecule, the “colonic score (0-12)” value in the assay with Sprague-Dawley rats [4] (vs vehicle treated animals) was “reduced”.

Values taken from patent US20200064357A1, “METHODS FOR DETERMINING AND MONITORING GASTROINTESTINAL INFLAMMATION” (Protagonist Therapeutics, Inc., priority 2016, published 2020).
